Here are results for one compound from publication PMC3854447, “Functional characterisation of three members of the Vitis vinifera L. carotenoid cleavage dioxygenase gene family” (BMC Plant Biology, 2013).

In the test the target is T1, VvCCD1 (Vitis vinifera, UniProt U3M7F6).
T1 construct: gene CCD1; 1715 bp coding region from Pinotage cDNA, NdeI/PstI in pTWIN1, expressed in carotenoid-accumulating E. coli
Kind of test: co-expression in carotenoid-accumulating E. coli, HS-SPME GC/MS of volatile apocarotenoid. The note with it: beta-carotene strain (pAC-BETA); product beta-ionone; Fe2+ and ascorbate added; room temperature, 16 h, dark. The format is cell-based.

T1 sequence (U3M7F6 1-542): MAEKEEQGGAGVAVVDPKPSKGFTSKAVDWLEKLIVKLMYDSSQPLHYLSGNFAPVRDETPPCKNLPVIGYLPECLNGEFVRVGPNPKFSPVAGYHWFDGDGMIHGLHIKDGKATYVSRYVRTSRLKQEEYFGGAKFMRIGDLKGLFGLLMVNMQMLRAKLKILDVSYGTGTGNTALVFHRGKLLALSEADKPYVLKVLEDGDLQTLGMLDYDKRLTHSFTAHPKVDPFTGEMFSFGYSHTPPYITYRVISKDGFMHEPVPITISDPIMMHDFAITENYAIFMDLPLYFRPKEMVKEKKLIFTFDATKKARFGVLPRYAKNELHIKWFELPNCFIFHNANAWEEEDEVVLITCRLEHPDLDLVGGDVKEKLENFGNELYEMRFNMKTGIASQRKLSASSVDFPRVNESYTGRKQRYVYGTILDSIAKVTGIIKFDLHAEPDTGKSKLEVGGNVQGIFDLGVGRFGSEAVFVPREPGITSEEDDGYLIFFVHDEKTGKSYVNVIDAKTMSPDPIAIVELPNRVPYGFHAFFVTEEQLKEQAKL

In the case of `CC1=C(/C=C/C(C)=C/C=C/C(C)=C/C=C/C=C(C)/C=C/C=C(C)/C=C/C2=C(C)CCCC2(C)C)C(C)(C)CCC1` [β-carotene], the “co-expression in carotenoid-accumulating E. coli, HS-SPME GC/MS of volatile apoc” value is recorded as “Only VvCCD1, however, catalysed β-carotene cleavage to form β-ionone”.
